Experimental data as given in patent US5132429A, “Benzotriazole derivatives and fluorescence-emitting reagents thereof” (priority 1988, dated 1992).

Experiments:
[1] = molecular target: α1-AG (α1-acid glycoprotein); assay: Binding constant of basic drug to α1-AG by displacement of compound 1 (fluorescence probe method, Klotz formula); conditions: 0.1M phosphoric acid buffer pH 7.4; 3×10^-6 M α1-AG; compound 1 as probe
Method: (§1) Two different kinds of solutions, one containing α1 -AG and a compound of this invention listed above, the other containing α1 -AG, the compound of this invention, and a drug, are prepared to measure fluorescence intensity at the excitation. fluorescence wavelength, as shown in Table 2. According to the working curve made beforehand, the binding rate of the compound to α1 -AG in each solution is determined and the binding constant of a drug to α1-AG is calculated from the difference between the binding rates in the presence and the absence of a drug.
(§2) In the fluorescence cell made of quartz with a plug was placed the buffer solution of 0.1M phosphoric acid (2 ml) which pH is 7.4 and containig 1×10^-4 M α1 -AG, to which 5×10^-4 M aqueous solution of the compound 1 was added by 2 μl each with a microcylinder, which was prepared by dissolving about 3 mg of the compound 1 in 1N hydrochloric acid (1 ml), followed by diluting with water to make the total volume 200 times, and the resulting solution was mixed fully to determine fluorescence intensity at 508 nm (excitation wavelength: 418 nm).
(§3) For the buffer solution of 0.1M phosphoric acid (2 ml) which pH is 7.4 and containing 3×10^-6 M α1 -AG, the same procedure as in Example 1 was performed.
As for the other basic drugs shown in Table 3, binding constant were obtained according to the same manner as in Example 11.

α1-AG [2] = conditions: cited from earlier work
[3] = tested on: α1-AG (α1-acid glycoprotein); assay: Binding of compound to α1-AG by fluorescence titration, Scatchard analysis; conditions: for binding of the compound 1 to α1-AG: pH 7.4
Method: as §2, §3
The binding rate (X) of the compound 1 to α1 -AG was introduced from the following formula (1) [formula]
In this scheme, Fb is fluorescence intensity at some concentration of the compound 1 which was obtained in Experiment 1, Fp is fluorescence intensity at the same concentration of the compound 1 which was obtained in Example 2, and Fo is blank value.
The value introduced from the binding rate at each concentration of the compound 1 was plotted accoding to the formula (2) of Scatchard, whereby the binding parameter of the compound 1 to α1 -AG was obtained.
In this scheme, r is the amount of binding of the compound 1 per α1 -AG (1 mole), n is the number of binding site, Ka is the binding constant of the compound 1, Df is the concentration of the compound 1 which is free form.

α1-AG [4] = assay: Fluorescence (excitation and fluorescence wavelength) with α1-AG; type: physicochemical
Method: as §1
Sulfosalicylic acid is added to the sample solution containing α1 -AG to remove coexisting proteins, to which the solution containing a compound is added. The mixed solution is subjected to determination of fluorescence intensity at excitation. fluorescence wavelength as shown in Table 2. According to the working curve on the standard solution of α1 -AG, the concentration of α1-AG in the sample is determined.

Human Serum Albumine = assay: Fluorescence (excitation and fluorescence wavelength) with human serum albumin; type: physicochemical
Method: A solution containing a compound is added to a solution containing albumin and the mixed solution is subjected to determination of fluorescence intensity at excitation. fluorescence wavelength as shown in Table 2. According to the working curve on the standard albumin solution made beforehand, the concentration of albumin in the sample solution is determined.

| Structure (SMILES) | log Kb (binding constant) [1] | Excitation Wavelength (α1-AG [4]) | Fluorescence Wavelength (α1-AG [4]) | Excitation Wavelength (Human Serum Albumine) | Fluorescence Wavelength (Human Serum Albumine) | other results |
| --- | --- | --- | --- | --- | --- | --- |
| CN(C)CCC=C1c2ccccc2CCc2ccccc21 [Amitriptyline] | 5.58 |  |  |  |  |  |
| CN(C)c1ccc(C(=N)c2ccc(N(C)C)cc2)cc1 [Auramin O] |  |  |  |  |  | binding strength to α1-AG (α1-AG [2]; Y. Sugiyama et al, Biochem. Pharmcol. 34(6), 821-829 (1985)): very weak |
| CCN(CC)c1ccc(-n2nc3cc(N)cc(Cl)c3n2)cc1 [Compound 1, 7-chloro-2-(p-diethylaminophenyl)-2H-benzotriazolyl-5-amine] |  | 418 nm | 508 nm | 415 nm | 505 nm | n (number of binding site) ([3]; 0.1M phosphoric acid buffer pH 7.4, 3×10^-6 M α1-AG, Scatchard): 0.40; binding of the compound 1 to α1-AG ([3]; 1×10^-4 M α1-AG, ex 418 nm, em 508 nm): all of the compound 1 bound to α1 -AG; binding of the compound 1 to α1-AG ([3]; 3×10^-6 M α1-AG): under an equilibrium condition |
| CNc1ccc(-n2nc3cc(N)cc(Cl)c3n2)cc1 [Compound 2, 7-chloro-2-(p-methylaminophenyl)-2H-benzotriazolyl-5-amine] |  | 396 nm | 482 nm | 385 nm | 480 nm |  |
| Nc1cc(Cl)c2nn(-c3ccc(Nc4ccccc4)cc3)nc2c1 [Compound 3, 7-chloro-2-(p-anilinophenyl)-2H-benzotriazolyl-5-amine] |  | 400 nm | 505 nm | 400 nm | 485 nm |  |
| Nc1cc(Cl)c2nn(-c3ccc(N4CCOCC4)cc3)nc2c1 [Compound 4, 7-chloro-2-(p-morpholinophenyl)-2H-benzotriazolyl-5-amine] |  | 396 nm | 502 nm | 383 nm | 465 nm |  |
| CCOC(=O)c1cc(N)cc2nn(-c3ccc(N(CC)CC)cc3)nc12 [Compound 5, Ethyl 6-amino-2-(p-diethylaminophenyl)-2H-benzotriazole-4-carboxylate] |  | 452 nm | 567 nm | 420 nm | 520 nm |  |
| CNCCCN1c2ccccc2CCc2ccccc21 [Desipramine] | 4.86 |  |  |  |  |  |
| COc1ccc([C@@H]2Sc3ccccc3N(CCN(C)C)C(=O)[C@@H]2OC(C)=O)cc1 [Diltiazem] | 5.40 |  |  |  |  |  |
| CN(C)CCCN1c2ccccc2CCc2ccccc21 [Imipramine] | 5.61 |  |  |  |  |  |
| COc1ccc2c(c1)N(C[C@H](C)CN(C)C)c1ccccc1S2 [Levomepromazine] | 6.01 |  |  |  |  |  |
| COC(=O)C1=C(C)NC(C)=C(C(=O)OCCN(C)Cc2ccccc2)C1c1cccc([N+](=O)[O-])c1 (stereo not shown) [Nicardipine] | 6.78 |  |  |  |  |  |
| CCC(c1ccccc1)c1c(O)c2ccccc2oc1=O (stereo not shown) [Phenprocoumon] |  |  |  |  |  | wavelength suitable for determination (α1-AG [2]; M. Otagiri et al., J. of Pharmaceutical Sciences 76(8), 646-649 (1987)): short |
| CC(C)NCC(O)COc1cccc2[nH]ccc12 (stereo not shown) [Pindolol] | 5.33 |  |  |  |  |  |
| CC(CN1c2ccccc2Sc2ccccc21)N(C)C (stereo not shown) [Promethazine] | 4.94 |  |  |  |  |  |
| CC(CN(C)C)CN1c2ccccc2CCc2ccccc21 (stereo not shown) [Trimipramine] | 5.54 |  |  |  |  |  |
